Measurements as given in US20260070945A1, “MACROCYCLIC IMMUNOMODULATORS” (Bristol-Myers Squibb Company, priority 2022, published 2026).
*1 amine or outer side, *2 acyl side, *3 side chain or, on linkers, in order; H or OH if unused. Where a SMILES comes first, the peptide text is derived from it. Bridges are numbered along the chain shown (N, C = ends). [ ]: non-standard residue; d: D form. The star is where a group is joined. ξ: configuration not given here. Phe(4-COOH) = N[C@@H](Cc1ccc(C(=O)O)cc1)C(=O)O; Bip = N[C@@H](Cc1ccc(-c2ccccc2)cc1)C(=O)O; Phe(4-NH2) = Nc1ccc(C[C@H](N)C(=O)O)cc1; Phe(3-Me) = Cc1cccc(C[C@H](N)C(=O)O)c1; γGlu = O=C(O)[C@H](CCC(=O)[*:2])N[*:1]; Val(3-OH) = CC(C)(O)[C@H](N)C(=O)O; 3Pal = N[C@@H](Cc1cccnc1)C(=O)O; 4Pal = N[C@@H](Cc1ccncc1)C(=O)O; Aad = N[C@@H](CCCC(=O)O)C(=O)O; Cha = N[C@@H](CC1CCCCC1)C(=O)O; Cit = NC(=O)NCCC[C@H](N)C(=O)O; Ile(3ξ) = CCC(C)[C@H](N)C(=O)O; Thr(3ξ) = CC(O)[C@H](N)C(=O)O; Carboxymethyl = O=C(O)C*; NMeA = CN[C@@H](C)C(=O)O; Orn = NCCC[C@H](N)C(=O)O; Aun = NCCCCCCCCCCC(=O)O; Dab = NCC[C@H](N)C(=O)O; AEEA = NCCOCCOCC(=O)O; Sar = CNCC(=O)O

Target: T1, PD-1/PD-L1 interaction (PE-labeled human PD-L1-Ig binding to Jurkat cell line over-expressing human PD-1) (Homo sapiens, UniProt Q15116)
T1 construct: expressed in transfected cells; host or cells: Jurkat
T1 sequence (Q15116 25-288): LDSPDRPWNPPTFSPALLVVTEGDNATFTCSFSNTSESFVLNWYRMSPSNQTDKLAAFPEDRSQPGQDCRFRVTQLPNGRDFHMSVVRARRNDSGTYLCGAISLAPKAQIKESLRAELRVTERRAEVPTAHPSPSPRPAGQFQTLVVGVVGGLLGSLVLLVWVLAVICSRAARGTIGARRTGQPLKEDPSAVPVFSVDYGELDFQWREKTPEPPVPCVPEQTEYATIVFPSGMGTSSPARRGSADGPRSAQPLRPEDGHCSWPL
Experiment: Jurkat-PD-1 Cell Binding High-Content Screening Assay (CBA)
Conditions: Jurkat-hPD-1 cells, PE-labeled PD-L1-Ig 20 nM final; read-out: Jurkat HPD1 PDL1 IC50
Summary of the method: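 Binding of 20 nM (final) PE-tagged PD-L1-Ig to compound-pretreated Jurkat-hPD-1 cells was measured by high-content imaging after 1 h. Pretreatment ran 2 h at 37 °C in DMEM with 10% fetal calf serum.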

**Q.** For `CC(C)C[C@H]1NC(=O)[C@H](C)N(C)C(=O)[C@H](C(C)C)NC(=O)[C@H](Cc2ccc(-c3ccccc3)cc2)NC(=O)[C@H](C(C)C)NC(=O)[C@H](Cc2c[nH]c3ccccc23)NC(=O)[C@H](CC(=O)O)NC(=O)[C@H](Cc2ccc(C(=O)O)cc2)NC(=O)[C@H](Cc2ccc(OCC(=O)O)cc2)NC(=O)CSC[C@@H](C(=O)N[C@@H](CCN)C(=O)NCCCCCCCCCCC(=O)O)NC(=O)[C@H](CCCNC(N)=O)NC(=O)[C@H](C(C)C)NC(=O)[C@H](CC2CCCCC2)NC(=O)[C@H](CCN)NC1=O` [Example 2290] ({CH2CO}-Y(Carboxymethyl)[Phe(4-COOH)]DWV[Bip]V[NMeA][dL][Dab][Cha]V[Cit]C[Dab][Aun]-OH; thioether N-14), which IC50 is on record?
**A.** 18 nM

**Q.** `CCC(C)[C@@H]1NC(=O)[C@H](Cc2ccc(-c3ccccc3)cc2)NC(=O)[C@H](CC(C)C)NC(=O)[C@H](Cc2c[nH]c3ccccc23)NC(=O)[C@H](CC(=O)O)NC(=O)[C@H](Cc2ccc(OCC(=O)O)cc2)NC(=O)[C@H](Cc2ccncc2)NC(=O)CSC[C@@H](C(=O)N[C@@H](CCCN)C(=O)NCCOCCOCC(=O)NCCCCCCCCCCC(=O)O)NC(=O)[C@H](CO)NC(=O)[C@H](C(C)C)NC(=O)[C@H](CC2CCCCC2)NC(=O)[C@H](Cc2c[nH]cn2)NC(=O)[C@@H](CC(C)C)NC(=O)[C@H](C)N(C)C1=O` (stereo partly drawn) [Example 2087] ({CH2CO}-[4Pal]Y(Carboxymethyl)DWL[Bip][Ile(3ξ)][NMeA][dL]H[Cha]VSC[Orn][AEEA][Aun]-OH; thioether N-14) was tested. Which IC50 did it give?
**A.** 50.7 nM

**Q.** Which IC50 does the source give for `Cc1cccc(C[C@@H]2NC(=O)[C@H](CC(=O)O)NC(=O)[C@H](Cc3ccc(OCC(=O)O)cc3)NC(=O)[C@H](CCN)NC(=O)CSC[C@@H](C(=O)N[C@@H](CCN)C(=O)NCCCCCCCCCCC(=O)O)NC(=O)[C@H](CO)NC(=O)[C@H](C(C)(C)O)NC(=O)[C@H](CC3CCCCC3)NC(=O)[C@H](CCN)NC(=O)[C@@H](CC(C)C)NC(=O)[C@H](C)N(C)C(=O)[C@H](Cc3ccc(OCC(=O)O)cc3)NC(=O)[C@H](Cc3ccc(-c4ccccc4)cc3)NC(=O)[C@H](Cc3cccnc3)NC2=O)c1` [Example 1305] ({CH2CO}-[Dab]Y(Carboxymethyl)D[Phe(3-Me)][3Pal][Bip]Y(Carboxymethyl)[NMeA][dL][Dab][Cha][Val(3-OH)]SC[Dab][Aun]-OH; thioether N-14) here?
**A.** 24.8 nM

**Q.** Which IC50 does the source give for `Cc1cccc(C[C@@H]2NC(=O)[C@H](CC(=O)O)NC(=O)[C@H](Cc3ccc(C(=O)O)cc3)NC(=O)[C@H](Cc3ccc(OCC(=O)O)cc3)NC(=O)CSC[C@@H](C(=O)NCC(=O)N[C@@H](CCC(=O)NCCOCCOCC(=O)N[C@@H](CC(=O)O)C(=O)NCCCCCCCCCCC(=O)O)C(=O)O)NC(=O)[C@H](CO)NC(=O)[C@H](C(C)C)NC(=O)[C@H](CC(C)C)NC(=O)[C@H](CC(N)=O)NC(=O)[C@@H](CC(C)C)NC(=O)[C@H](C)N(C)C(=O)[C@H](C(C)C)NC(=O)[C@H](Cc3ccc(-c4ccccc4)cc3)NC(=O)[C@H](CC(C)C)NC2=O)c1` [Example 1014] ({CH2CO}-Y(Carboxymethyl)[Phe(4-COOH)]D[Phe(3-Me)]L[Bip]V[NMeA][dL]NLVSCG[γGlu][AEEA]D[Aun]-OH; thioether N-14) here?
**A.** 48.5 nM

**Q.** With `CC(=O)NCCCC[C@@H]1NC(=O)[C@H](C(C)C)NC(=O)[C@H](CC2CCCCC2)NC(=O)[C@H](CCN)NC(=O)[C@@H](CC(C)C)NC(=O)[C@H](C)N(C)C(=O)[C@H](Cc2ccc(O)cc2)NC(=O)[C@H](Cc2ccc(-c3ccccc3)cc2)NC(=O)[C@H](C(C)C)NC(=O)[C@H](Cc2cccc(C)c2)NC(=O)[C@H](CC(=O)O)NC(=O)[C@H](Cc2ccc(OCC(=O)O)cc2)NC(=O)[C@H](Cc2ccc(O)cc2)NC(=O)CSC[C@@H](C(=O)N(C)CC(=O)NCCCCCCCCCCC(=O)O)NC1=O` [Example 2275] ({CH2CO}-YY(Carboxymethyl)D[Phe(3-Me)]V[Bip]Y[NMeA][dL][Dab][Cha]VK(Ac)C[Sar][Aun]-OH; thioether N-14) as the compound, how does the IC50 read?
**A.** 282 nM

**Q.** Which IC50 does the source give for `COc1ccc(C[C@@H]2NC(=O)CSC[C@@H](C(=O)N[C@@H](CCN)C(=O)NCCCCCCCCCCC(=O)O)NC(=O)[C@H](CO)NC(=O)[C@H](C(C)(C)O)NC(=O)[C@H](CC3CCCCC3)NC(=O)[C@H](CCN)NC(=O)[C@@H](CC(C)C)NC(=O)[C@H](C)N(C)C(=O)[C@H](Cc3ccc(OCC(=O)O)cc3)NC(=O)[C@H](Cc3ccc(-c4ccccc4)cc3)NC(=O)[C@H](Cc3ccc(OCC(=O)O)cc3)NC(=O)[C@H](Cc3cccc(C)c3)NC(=O)[C@H](CC(=O)O)NC(=O)[C@H](Cc3ccc(OCC(=O)O)cc3)NC2=O)cc1` [Example 1286] ({CH2CO}-Y(Me)Y(Carboxymethyl)D[Phe(3-Me)]Y(Carboxymethyl)[Bip]Y(Carboxymethyl)[NMeA][dL][Dab][Cha][Val(3-OH)]SC[Dab][Aun]-OH; thioether N-14) here?
**A.** 19.2 nM

**Q.** Which IC50 does the source give for `Cc1cccc(C[C@@H]2NC(=O)[C@H](CC(=O)O)NC(=O)[C@H](Cc3c[nH]cn3)NC(=O)[C@H](Cc3ccc(OCC(=O)O)cc3)NC(=O)CSC[C@@H](C(=O)N[C@@H](CCN)C(=O)NCCCCCCCCCCC(=O)O)NC(=O)[C@H](CCCC(=O)O)NC(=O)[C@H](C(C)C)NC(=O)[C@H](CC3CCCCC3)NC(=O)[C@H](CCN)NC(=O)[C@@H](CC(C)C)NC(=O)[C@H](C)N(C)C(=O)[C@H](C(C)C)NC(=O)[C@H](Cc3ccc(-c4ccccc4)cc3)NC(=O)[C@H](C(C)C)NC2=O)c1` [Example 2215] ({CH2CO}-Y(Carboxymethyl)HD[Phe(3-Me)]V[Bip]V[NMeA][dL][Dab][Cha]V[Aad]C[Dab][Aun]-OH; thioether N-14) here?
**A.** 9.2 nM

**Q.** `Cc1cccc(C[C@@H]2NC(=O)[C@H](CC(=O)O)NC(=O)[C@H](Cc3ccc(OCC(=O)O)cc3)NC(=O)[C@H](CCN)NC(=O)CSC[C@@H](C(=O)N[C@@H](CCN)C(=O)NCCCCCCCCCCC(=O)O)NC(=O)[C@H](CO)NC(=O)[C@H](C(C)(C)O)NC(=O)[C@H](CC3CCCCC3)NC(=O)[C@H](CCN)NC(=O)[C@@H](CC(C)C)NC(=O)[C@H](C)N(C)C(=O)[C@H](Cc3ccc(OCC(=O)O)cc3)NC(=O)[C@H](Cc3ccc(-c4ccccc4)cc3)NC(=O)[C@H](Cc3ccc(N)cc3)NC2=O)c1` [Example 1307] ({CH2CO}-[Dab]Y(Carboxymethyl)D[Phe(3-Me)][Phe(4-NH2)][Bip]Y(Carboxymethyl)[NMeA][dL][Dab][Cha][Val(3-OH)]SC[Dab][Aun]-OH; thioether N-14) was tested. Which IC50 did it give?
**A.** 41.3 nM

**Q.** Which IC50 does the source give for `Cc1cccc(C[C@@H]2NC(=O)[C@H](CC(=O)O)NC(=O)[C@H](Cc3ccncc3)NC(=O)[C@H](Cc3ccc(OCC(=O)O)cc3)NC(=O)CSC[C@@H](C(=O)N[C@@H](CCN)C(=O)NCCOCCOCC(=O)NCCCCCCCCCCC(=O)O)NC(=O)[C@H]([C@@H](C)O)NC(=O)[C@H](C(C)C)NC(=O)[C@H](CC3CCCCC3)NC(=O)[C@H](CCN)NC(=O)[C@@H](CC(C)C)NC(=O)[C@H](C)N(C)C(=O)[C@H](Cc3ccc(OCC(=O)O)cc3)NC(=O)[C@H](Cc3ccc(-c4ccccc4)cc3)NC(=O)[C@H](Cc3ccc(OCC(=O)O)cc3)NC2=O)c1` [Example 1360] ({CH2CO}-Y(Carboxymethyl)[4Pal]D[Phe(3-Me)]Y(Carboxymethyl)[Bip]Y(Carboxymethyl)[NMeA][dL][Dab][Cha]VTC[Dab][AEEA][Aun]-OH; thioether N-14) here?
**A.** 8.6 nM

**Q.** `CC(C)C[C@H]1NC(=O)[C@H](C)N(C)C(=O)[C@H](Cc2ccc(OCC(=O)O)cc2)NC(=O)[C@H](Cc2ccc(-c3ccccc3)cc2)NC(=O)[C@H](Cc2ccc(OCC(=O)O)cc2)NC(=O)[C@H](Cc2c[nH]c3ccccc23)NC(=O)[C@H](CC(=O)O)NC(=O)[C@H](Cc2ccc(OCC(=O)O)cc2)NC(=O)[C@H]([C@@H](C)O)NC(=O)CSC[C@@H](C(=O)N[C@@H](CCN)C(=O)NCCOCCOCC(=O)NCCCCCCCCCCC(=O)O)NC(=O)[C@H](CCCN)NC(=O)[C@H](C(C)C)NC(=O)[C@H](CC2CCCCC2)NC(=O)[C@H](CCC(=O)O)NC1=O` [Example 1400] ({CH2CO}-TY(Carboxymethyl)DWY(Carboxymethyl)[Bip]Y(Carboxymethyl)[NMeA][dL]E[Cha]V[Orn]C[Dab][AEEA][Aun]-OH; thioether N-14) was tested. Which IC50 did it give?
**A.** 306 nM

**Q.** For `Cc1cccc(C[C@@H]2NC(=O)[C@H](CC(=O)O)NC(=O)[C@H](Cc3ccc(OCC(=O)O)cc3)NC(=O)[C@H]([C@@H](C)O)NC(=O)CSC[C@@H](C(=O)NCCOCCOCC(=O)NCCCCCCCCCCC(=O)O)NC(=O)[C@H](CO)NC(=O)[C@H](C(C)(C)O)NC(=O)[C@H](CC3CCCCC3)NC(=O)[C@H](CCN)NC(=O)[C@@H](CC(C)C)NC(=O)[C@H](C)N(C)C(=O)[C@H](CCCNC(N)=O)NC(=O)[C@H](Cc3ccc(-c4ccccc4)cc3)NC(=O)[C@H](C(C)C)NC2=O)c1` [Example 1403] ({CH2CO}-TY(Carboxymethyl)D[Phe(3-Me)]V[Bip][Cit][NMeA][dL][Dab][Cha][Val(3-OH)]SC[AEEA][Aun]-OH; thioether N-14), which IC50 is on record?
**A.** 5 nM

Same assay, conditions: PE-labeled PD-L1-Ig 20 nM final, Jurkat-hPD-1 cells; read-out: Jurkat HPD1 PDL1 IC50

**Q.** For `Cc1cccc(C[C@@H]2NC(=O)[C@H](CC(=O)O)NC(=O)[C@H](Cc3ccc(C(=O)O)cc3)NC(=O)[C@H](CCN)NC(=O)CSC[C@@H](C(=O)N[C@@H](CCN)C(=O)NCCOCCOCC(=O)NCCCCCCCCCCC(=O)O)NC(=O)[C@H](Cc3cnc[nH]3)NC(=O)[C@H](C(C)O)NC(=O)[C@H](CC3CCCCC3)NC(=O)[C@H](CCN)NC(=O)[C@@H](CC(C)C)NC(=O)[C@H](C)N(C)C(=O)[C@H](Cc3ccc(C(=O)O)cc3)NC(=O)[C@H](Cc3ccc(-c4ccccc4)cc3)NC(=O)[C@H](Cc3ccc(C(=O)O)cc3)NC2=O)c1` (stereo partly drawn) [Example 2550] ({CH2CO}-[Dab][Phe(4-COOH)]D[Phe(3-Me)][Phe(4-COOH)][Bip][Phe(4-COOH)][NMeA][dL][Dab][Cha][Thr(3ξ)]HC[Dab][AEEA][Aun]-OH; thioether N-14), which IC50 is on record?
**A.** 2.8 nM
